According to patent publication US11566007B2, “Ras inhibitors” (Revolution Medicines, Inc., priority 2019, dated 2023):
Read-outs that look alike come from different tables or passages of the source.

What was measured:
NRAS G12C = NRAS G12C (Homo sapiens (Human), UniProt P01111+P62937, G12C); assay: Ras-Raf (BRAF RBD) disruption / FRET / MOA assay, NRAS G12C; type: biochemical; conditions: read-out: IC50* NRAS G12C FRET data
In short: (§1)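 Ternary complex formation (Ras–compound–cyclophilin A) displacing BRAF RBD, monitored by TR-FRET. Three hours at 25° C with compound (top 30 μM final), then 1.5 h with the labelled antibodies. Lower ratio than DMSO indicates disruption; IC50 reported.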

KRAS G12S = KRAS G12S (Homo sapiens (Human), UniProt P01116+P62937, G12S); assay: Ras-Raf (BRAF RBD) disruption / FRET / MOA assay, KRAS G12S; type: biochemical; conditions: Ras-Raf disruption/FRET/MOA assay; class symbols; read-out: KRAS G12S FRET data IC50
KRAS G12S, sequence (P01116-2 other isoform, or with tags, fused parts or gaps G12S): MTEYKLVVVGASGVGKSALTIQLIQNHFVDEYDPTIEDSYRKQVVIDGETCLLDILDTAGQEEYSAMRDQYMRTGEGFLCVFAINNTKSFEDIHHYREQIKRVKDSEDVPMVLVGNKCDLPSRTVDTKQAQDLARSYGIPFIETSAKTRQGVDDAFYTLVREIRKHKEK
KRAS G12S, sequence (P62937 whole entry): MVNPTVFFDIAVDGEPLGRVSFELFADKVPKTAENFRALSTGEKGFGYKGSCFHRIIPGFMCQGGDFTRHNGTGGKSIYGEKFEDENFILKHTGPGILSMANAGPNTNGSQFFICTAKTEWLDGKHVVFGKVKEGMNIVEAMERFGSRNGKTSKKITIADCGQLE
In short: as §1

NCI-H358 (K-Ras G12C) = assay: CellTiter-Glo cell viability assay, NCI-H358; type: cell-based, human; conditions: NCI-H358, 5-day treatment, class symbols, read-out: Additional H358 Cell Viability assay data (K-Ras G12C, IC50)
In short: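 Four-parameter logistic fits were applied to luminescence data normalized against DMSO-treated wells. Readings were taken on day 5 following direct compound addition, after roughly 30 minutes at room temperature.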

[1] = tested on: NCI-H358 cells (K-Ras G12C); assay: Potency assay: pERK in NCI-H358 cells; type: cell-based, human; conditions: Homo sapiens, NCI-H358; H358 KRAS G12C; read-out: pERK EC50
In short: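 Compounds are dosed as ten 3-fold dilutions from a 10 mM DMSO stock, in duplicate, and left on cells for 4 h at 37 °C, 5% CO2. Phospho-ERK1/2 is then quantified by AlphaLISA SureFire Ultra or In-Cell Western, and IC50 is derived from a 4-parameter sigmoid against log concentration.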

KRAS G13D = KRAS G13D (Homo sapiens (Human), UniProt P01116+P62937, G13D); assay: Ras-Raf (BRAF RBD) disruption / FRET / MOA assay, KRAS G13D; type: biochemical; conditions: read-out: IC50* KRAS G13D FRET data
KRAS G13D, sequence (P01116-2 other isoform, or with tags, fused parts or gaps G13D): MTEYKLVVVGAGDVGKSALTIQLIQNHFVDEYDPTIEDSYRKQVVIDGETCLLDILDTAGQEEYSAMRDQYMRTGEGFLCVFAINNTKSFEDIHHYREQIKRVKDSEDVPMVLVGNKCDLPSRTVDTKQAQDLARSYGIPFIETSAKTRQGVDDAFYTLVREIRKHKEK
KRAS G13D, sequence (P62937 whole entry): as the sequence (P62937 whole entry) above
In short: as §1

KRAS WT = KRAS WT (Homo sapiens (Human), UniProt P01116+P62937); assay: Ras-Raf (BRAF RBD) disruption / FRET / MOA assay, KRAS WT; type: biochemical; conditions: read-out: IC50* KRAS WT FRET data
KRAS WT, sequence (P01116-2 other isoform, or with tags, fused parts or gaps): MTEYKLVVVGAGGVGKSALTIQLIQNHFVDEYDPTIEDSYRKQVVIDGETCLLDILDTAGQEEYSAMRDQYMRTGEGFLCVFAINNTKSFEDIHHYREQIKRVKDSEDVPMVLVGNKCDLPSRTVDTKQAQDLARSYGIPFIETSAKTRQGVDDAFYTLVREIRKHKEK
KRAS WT, sequence (P62937 whole entry): as the sequence (P62937 whole entry) above
In short: as §1

K-Ras G13C = K-Ras G13C (Homo sapiens (Human), UniProt P01116+P62937, G13C); assay: Ras-Raf (BRAF RBD) disruption / FRET / MOA assay, KRAS G13C; type: biochemical; conditions: KRAS G13C; Ras-Raf disruption/FRET/MOA assay; read-out: IC50* KRAS G13C FRET data
K-Ras G13C, sequence (P01116-2 other isoform, or with tags, fused parts or gaps G13C): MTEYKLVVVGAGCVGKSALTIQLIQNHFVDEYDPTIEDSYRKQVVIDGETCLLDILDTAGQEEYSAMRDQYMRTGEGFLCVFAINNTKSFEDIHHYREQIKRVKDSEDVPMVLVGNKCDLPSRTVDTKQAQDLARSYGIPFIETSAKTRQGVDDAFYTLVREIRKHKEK
K-Ras G13C, sequence (P62937 whole entry): as the sequence (P62937 whole entry) above
In short: as §1

KRAS G12V = KRAS G12V (Homo sapiens (Human), UniProt P01116+P62937, G12V); assay: Ras-Raf (BRAF RBD) disruption / FRET / MOA assay, KRAS G12V; type: biochemical; conditions: read-out: IC50* KRAS G12V FRET data
KRAS G12V, sequence (P01116-2 other isoform, or with tags, fused parts or gaps G12V): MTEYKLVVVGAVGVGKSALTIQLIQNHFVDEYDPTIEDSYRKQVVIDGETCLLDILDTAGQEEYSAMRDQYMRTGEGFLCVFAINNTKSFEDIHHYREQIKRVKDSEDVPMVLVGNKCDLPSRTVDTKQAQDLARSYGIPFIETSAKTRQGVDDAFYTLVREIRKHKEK
KRAS G12V, sequence (P62937 whole entry): as the sequence (P62937 whole entry) above
In short: as §1

K-Ras G12C = K-Ras G12C (Homo sapiens (Human), UniProt P01116+P62937, G12C); assay: Ras-Raf (BRAF RBD) disruption / FRET / MOA assay, KRAS G12C; type: biochemical; conditions: KRAS G12C; Ras-Raf disruption/FRET/MOA assay; read-out: IC50* KRAS G12C FRET data
K-Ras G12C, sequence (P01116-2 other isoform, or with tags, fused parts or gaps G12C): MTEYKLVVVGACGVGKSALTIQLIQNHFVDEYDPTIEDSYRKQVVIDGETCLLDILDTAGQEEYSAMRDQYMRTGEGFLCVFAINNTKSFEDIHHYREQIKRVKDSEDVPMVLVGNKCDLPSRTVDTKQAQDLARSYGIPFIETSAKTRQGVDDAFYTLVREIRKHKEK
K-Ras G12C, sequence (P62937 whole entry): as the sequence (P62937 whole entry) above
In short: as §1

KRAS G12D = KRAS G12D (Homo sapiens (Human), UniProt P01116+P62937, G12D); assay: Ras-Raf (BRAF RBD) disruption / FRET / MOA assay, KRAS G12D; type: biochemical; conditions: Ras-Raf disruption/FRET/MOA assay; class symbols; read-out: KRAS G12D FRET data IC50
KRAS G12D, sequence (P01116-2 other isoform, or with tags, fused parts or gaps G12D): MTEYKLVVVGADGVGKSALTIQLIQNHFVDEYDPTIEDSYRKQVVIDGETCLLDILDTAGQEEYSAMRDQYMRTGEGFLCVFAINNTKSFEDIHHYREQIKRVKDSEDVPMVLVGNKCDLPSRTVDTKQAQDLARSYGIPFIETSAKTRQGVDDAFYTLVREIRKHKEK
KRAS G12D, sequence (P62937 whole entry): as the sequence (P62937 whole entry) above
In short: as §1

NRAS G12C, sequence (P01111 whole entry G12C): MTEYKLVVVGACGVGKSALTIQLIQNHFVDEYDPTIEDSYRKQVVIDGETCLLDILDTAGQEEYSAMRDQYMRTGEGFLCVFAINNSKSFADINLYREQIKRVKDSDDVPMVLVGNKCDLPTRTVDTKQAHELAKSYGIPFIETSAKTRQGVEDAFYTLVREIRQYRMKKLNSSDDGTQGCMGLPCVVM
NRAS G12C, sequence (P62937 whole entry): as the sequence (P62937 whole entry) above

Compound	IC50 (NRAS G12C) [µM]	IC50 (KRAS G12S) [µM]	IC50 (NCI-H358 (K-Ras G12C); Homo sapiens, NCI-H358, 120 h) [µM]	EC50 [1] [µM]	IC50 (KRAS G13D) [µM]	IC50 (KRAS WT) [µM]	IC50 (K-Ras G13C) [µM]	IC50 (KRAS G12V) [µM]	IC50 (K-Ras G12C) [µM]	IC50 (KRAS G12D) [µM]	IC50 (NCI-H358 (K-Ras G12C)) [µM]
C=CC(=O)N1C[C@@H](C(=O)N(C)[C@H](C(=O)N[C@H]2Cc3cc(O)cc(c3)-c3ccc4c(c3)c(c(-c3cccnc3COC)n4CC)CC(C)(C)COC(=O)[C@@H]3CCCN(N3)C2=O)C(C)C)C[C@H]1C [Example A158]	0.01 to 0.1	0.1 to 1	0.01 to 0.1	< 5	0.1 to 1	0.1 to 1	0.1 to 1	1 to 10	0.01 to 0.1	> 10	–
C=CC(=O)N1C[C@@H](C(=O)N(C)[C@@H](C(=O)N[C@H]2Cc3cc(O)cc(c3)-c3ccc4c(c3)c(c(-c3cccnc3COC)n4CC)CC(C)(C)COC(=O)[C@@H]3CCCN(N3)C2=O)C(C)C)C[C@H]1C [Example A159]	0.1 to 1	1 to 10	0.1 to 1	< 5	1 to 10	1 to 10	> 10	1 to 10	0.1 to 1	> 10	–
CCn1c(-c2cccnc2COC)c2c3cc(ccc31)-c1cc(O)cc(c1)C[C@H](NC(=O)[C@H](C(C)C)N(C)C(=O)[C@@H]1CCN(C(=O)C#CC(C)(C)N(C)C)C1)C(=O)N1CCC[C@H](N1)C(=O)OCC(C)(C)C2 [Example A162]	< 0.01	1 to 10	< 0.01	< 5	1 to 10	1 to 10	0.1 to 1	0.1 to 1	< 0.01	1 to 10	–
CCn1c(-c2cccnc2COC)c2c3cc(ccc31)-c1cc(O)cc(c1)C[C@H](NC(=O)[C@H](C(C)C)N(C)C(=O)[C@H]1CCC(C(=O)/C=C\CN(C)C)C1)C(=O)N1CCC[C@H](N1)C(=O)OCC(C)(C)C2 (stereo partly shown) [Example A164]	0.01 to 0.1	0.1 to 1	–	< 5	0.1 to 1	0.1 to 1	0.1 to 1	0.1 to 1	0.01 to 0.1	1 to 10	0.1 to 1
CCn1c(-c2cccnc2COC)c2c3cc(ccc31)-c1cc(O)cc(c1)C[C@H](NC(=O)[C@@H](C(C)C)N(C)C(=O)[C@H]1C[C@@H](C)N(C(=O)C#CCN(C)C)C1)C(=O)N1CCC[C@H](N1)C(=O)OCC(C)(C)C2 [Example A165]	0.01 to 0.1	> 10	0.01 to 0.1	< 5	> 10	> 10	0.1 to 1	> 10	0.01 to 0.1	> 10	–
CC#CC(=O)N1CC[C@@H](C(=O)N(C)[C@H](C(=O)N[C@H]2Cc3cc(O)cc(c3)-c3ccc4c(c3)c(c(-c3cncnc3)n4CC)CC(C)(C)COC(=O)[C@@H]3CCCN(N3)C2=O)C(C)C)C1 [Example A169]	0.1 to 1	1 to 10	0.1 to 1	< 5	> 10	1 to 10	1 to 10	1 to 10	0.1 to 1	> 10	–
CCn1c(-c2cccnc2COC)c2c3cc(ccc31)-c1cc(O)cc(c1)C[C@H](NC(=O)[C@H](C(C)C)N(C)C(=O)[C@H]1C[C@@H](C)N(C(=O)C#CCN(C)C)C1)C(=O)N1CCC[C@H](N1)C(=O)OCC(C)(C)C2 [Example A175]	< 0.01	1 to 10	< 0.01	< 5	1 to 10	1 to 10	< 0.01	1 to 10	< 0.01	1 to 10	–
CCn1c(-c2cncnc2)c2c3cc(ccc31)-c1cc(O)cc(c1)C[C@H](NC(=O)[C@H](C(C)C)N(C)C(=O)[C@H]1CCN(C(=O)C#CCN3CCOCC3)C1)C(=O)N1CCC[C@H](N1)C(=O)OCC(C)(C)C2 [Example A176]	< 0.01	1 to 10	0.01 to 0.1	< 5	> 10	> 10	1 to 10	1 to 10	< 0.01	> 10	–
CCn1c(-c2cncnc2)c2c3cc(ccc31)-c1csc(n1)C[C@H](NC(=O)[C@H](C(C)C)N(C)C(=O)[C@H]1CCN(C(=O)C#CCN3CCOCC3)C1)C(=O)N1CCC[C@H](N1)C(=O)OCC(C)(C)C2 [Example A177]	0.1 to 1	> 10	0.1 to 1	< 5	> 10	> 10	> 10	> 10	0.1 to 1	> 10	–
C/C=C(\C#N)C(=O)N1CC[C@H](C(=O)N(C)[C@H](C(=O)N[C@H]2Cc3cc(O)cc(c3)-c3ccc4c(c3)c(c(-c3cccnc3COC)n4CC)CC(C)(C)COC(=O)[C@@H]3CCCN(N3)C2=O)C(C)C)C1 [Example A178]	0.01 to 0.1	0.1 to 1	> 1	< 5	1 to 10	1 to 10	0.01 to 0.1	0.1 to 1	0.01 to 0.1	1 to 10	–
C=CC(=O)N1CC[C@@H](C(=O)N(C)[C@H](C(=O)N[C@H]2Cc3cc(O)cc(c3)-c3ccc4c(c3)c(c(-c3cncnc3)n4CC)CC(C)(C)COC(=O)[C@@H]3CCCN(N3)C2=O)C(C)C)O1 [Example A179]	0.01 to 0.1	1 to 10	> 1	< 5	1 to 10	1 to 10	0.1 to 1	1 to 10	0.01 to 0.1	1 to 10	–
C=CC(=O)N1CC[C@H](C(=O)N(C)[C@H](C(=O)N[C@H]2Cc3cc(O)cc(c3)-c3ccc4c(c3)c(c(-c3cncnc3)n4CC)CC(C)(C)COC(=O)[C@@H]3CCCN(N3)C2=O)C(C)C)O1 [Example A180]	0.1 to 1	1 to 10	> 1	< 5	1 to 10	0.1 to 1	0.1 to 1	0.1 to 1	0.1 to 1	1 to 10	–
CCn1c(-c2cncnc2)c2c3cc(ccc31)-c1cccc(c1)C[C@H](NC(=O)[C@H](C(C)C)N(C)C(=O)[C@H]1CCN(C(=O)C#CCN3CCOCC3)C1)C(=O)N1CCC[C@H](N1)C(=O)OCC(C)(C)C2 [Example A185]	0.1 to 1	> 10	0.1 to 1	< 5	> 10	> 10	> 10	> 10	0.1 to 1	> 10	–
CCn1c(-c2cccnc2COC)c2c3cc(ccc31)-c1cc(O)cc(c1)C[C@H](NC(=O)[C@H](C(C)C)N(C)C(=O)[C@H]1CCN(C(=O)C#CCN3CCN(C)CC3)C1)C(=O)N1CCC[C@H](N1)C(=O)OCC(C)(C)C2 [Example A189]	0.01 to 0.1	0.1 to 1	> 1	< 5	0.1 to 1	0.1 to 1	0.1 to 1	0.1 to 1	0.01 to 0.1	0.1 to 1	–
CCn1c(-c2cccnc2)c2c3cc(ccc31)-c1csc(n1)C[C@H](NC(=O)[C@H](C(C)C)N(C)C(=O)[C@H]1CCN(C(=O)C#CCN3CCOCC3)C1)C(=O)N1CCC[C@H](N1)C(=O)OCC(C)(C)C2 [Example A190]	0.1 to 1	> 10	0.1 to 1	< 5	> 10	> 10	> 10	> 10	0.1 to 1	> 10	–
CCn1c(-c2cccnc2)c2c3cc(ccc31)-c1cccc(c1)C[C@H](NC(=O)[C@H](C(C)C)N(C)C(=O)[C@H]1CCN(C(=O)C#CCN3CCOCC3)C1)C(=O)N1CCC[C@H](N1)C(=O)OCC(C)(C)C2 [Example A195]	0.1 to 1	> 10	0.1 to 1	< 5	> 10	> 10	> 10	> 10	0.1 to 1	> 10	–
